Experimental data published in patent US11066447B2, “Aureobasidium derivatives and methods of synthesis” (AureoGen Biosciences, Inc., priority 2016, dated 2021).
Values after ≈ are worked out from the molar mass of the structure shown. Read-outs that look alike come from different tables or passages of the source. Numbered stars: 1 amine (or outer) side, 2 acyl side, 3 side chain; on linkers, the order of the positions; unused ones are H or OH. Square brackets hold non-standard residues; d marks the D form. Peptide text beside a SMILES is read from it. X28 = CN([C@@H](Cc1cccc(-c2ccc(C(F)(F)F)cc2)c1)C(=O)[*:2])[*:1]; X31 = CN([C@@H](Cc1cccc(-c2cccc(C(F)(F)F)c2)c1)C(=O)[*:2])[*:1]; X30 = CN([C@@H](Cc1cccc(-c2ccc(Cl)c(Cl)c2)c1)C(=O)[*:2])[*:1]; X33 = CN([C@@H](Cc1cccc(-c2ccc3ccccc3c2)c1)C(=O)[*:2])[*:1]; X29 = CN([C@@H](Cc1cccc(-c2ccc(F)cc2)c1)C(=O)[*:2])[*:1]; Hmp(2R,3S) = CC[C@H](C)[C@@H](O)C(=O)O; NMeVal(β-OH) = CN[C@H](C(=O)O)C(C)(C)O; NMeV = CN[C@H](C(=O)O)C(C)C

Tests used:
[1] = tested on: C. albicans MMX 2000 ATCC 10231; experiment: MIC assay (CLSI microdilution); type: cell-based; conditions: Candida albicans, ATCC10231, RPMI plus 0.002% Tween-80; read-out: MIC
Description: (§1) Aureobasidin and test compounds (i.e., AbA derivatives of the present invention) were received from Kalexsyn, Inc. (Kalamazoo, Mich.) as powder and were stored at 4° C. until the day of assay. […] amphotericin was obtained from Sigma Aldrich and stored under like conditions. […] Ethanol (95%) was used as a solvent and diluent for all AbA compounds. Amphotericin B was tested from 0.06-64 μg/mL. Amphotericin B (Sigma Aldrich; St. Louis, Mo.; Cat No. A9528-100MG, Lot No. 120M4087) was dissolved and diluted with dimethylsulfoxide (DMSO; Sigma Aldrich; St. Louis, Mo.; Cat No. 472301 Lot No. SHBD2072V).
(§2) The solvents were added to the test agents and the stock solutions stood for approximately 1 hr at room temperature prior to use to auto sterilize. Stock solutions were prepared at 40× the desired top concentration in the test plate.
(§3) All of the test isolates were originally received from either the American Type Culture Collection (ATCC), clinical labs, or directly from Aureogen Biosciences. Organisms stored by Micromyx were cultured on agar medium appropriate to each organism. Colonies were picked by swab from the isolation plates and put into suspension in appropriate broth containing cryoprotectant. The suspensions were aliquoted into cryogenic vials and maintained at −80° C.
(§4) Prior to testing, Candida isolates were streaked from the frozen vials on Sabouraud dextrose agar. The yeast isolates were incubated for 48 hours at 35° C. before use. The fungal isolates were obtained from enumerated fungal stocks previously prepared at Micromyx and stored in phosphate buffered saline at 4° C.
(§5) Test Media. The medium employed for the MIC assay was RPMI-1640 medium from HyClone Laboratories (Logan, Utah; Lot No. AYB60287A). The medium was prepared according to Clinical and Laboratory Standards Institute (CLSI) guidelines (1, 2), and modified to include 0.002% Tween-80. Candida parapsilosis ATCC 22019 (MMX 2323) and Aspergillus fumigatus ATCC MYA-3626 (MMX 5280) were also tested without Tween-80 to provide data for the quality control of amphotericin B in accordance with CLSI (3) and to assess the effect of Tween-80 on the activity of the test agents.
(§6) Test Procedure. The MIC assay method followed the procedure described by CLSI (1, 2) and employed automated liquid handlers to conduct serial dilutions and liquid transfers. Automated liquid handlers included the Multidrop 384 (Labsystems, Helsinki, Finland), Biomek 2000 and Biomek FX (Beckman Coulter, Fullerton Calif.). The wells in columns 2-12 in standard 96-well microdilution plates (Costar 3795) were filled with 150 μl of the appropriate diluent (95% EtOH for investigational compounds, 100% DMSO for amphotericin B). These assay plates would become the ‘mother plates’ from which the assay ‘daughter plates’ would be prepared. The drugs (300 μL at 40× the desired top concentration in the test plates) were dispensed into the appropriate well in Column 1 of the mother plates. The Biomek 2000 was used to make two-fold serial dilutions through Column 11 in the “mother plate”. The wells of Column 12 contained no drug and served as the organism growth control wells.
(§7) The daughter plates were loaded with 185 μL per well on the Multidrop 384 with RPMI plus 0.002% Tween-80 or RPMI containing no Tween-80 for the testing of the two QC isolates. The daughter plates were prepared on the Biomek FX instrument which transferred 5 μL of drug solution from each well of a mother plate to each corresponding well of each daughter plate in a single step.
(§8) A standardized inoculum of each organism was prepared per CLSI methods (1, 2). For the Candida isolates, colonies were picked from the streak plate and a suspension was prepared in RPMI to equal a 0.5 McFarland standard. This suspension was diluted 1:100 in RPMI resulting in a final concentration of approximately 0.5-2.5×10^3 CFU/mL. […]

[2] = tested on: C. neoformans MMX 0634 ATCC 90112; experiment: MIC assay (CLSI microdilution); type: cell-based; conditions: Cryptococcus neoformans, ATCC90112, RPMI plus 0.002% Tween-80; read-out: MIC
Description: as §1, §2, §3, §4, §5, §6, §7, §8

[3] = tested on: C. parapsilosis MMX 2323 ATCC 22019; experiment: MIC assay (CLSI microdilution); type: cell-based, Candida parapsilosis; conditions: read-out: MIC
Description: as §1, §2, §3, §4, §5, §6, §7, §8

A. flavus MMX 5948 = experiment: MIC/MEC assay (CLSI microdilution); type: cell-based; conditions: Aspergillus flavus, MMX5948, 48 h; for minimal effective concentration: RPMI plus 0.002% Tween-80; for MIC: RPMI plus 0.002% Tween-80, read-out: MIC
Description: as §1, §2, §3, §4, §5, §6, §7, §8

A. fumigatus MMX 5944 = experiment: MIC/MEC assay (CLSI microdilution); type: cell-based; conditions: Aspergillus fumigatus, MMX5944, 48 h; for minimal effective concentration: RPMI plus 0.002% Tween-80; for MIC: RPMI plus 0.002% Tween-80, read-out: MIC
Description: as §1, §2, §3, §4, §5, §6, §7, §8

[4] = tested on: A. fumigatus MMX 6781 ATCC MYA-4609; experiment: MIC/MEC assay (CLSI microdilution); type: cell-based; conditions: Aspergillus fumigatus; for MIC: 48 h, RPMI plus 0.002% Tween-80, read-out: MIC; for minimal effective concentration: RPMI plus 0.002% Tween-80, 48 hr
Description: as §1, §2, §3, §4, §5, §6, §7, §8

[5] = tested on: A. fumigatus MMX 6782 ATCC 13073; experiment: MIC/MEC assay (CLSI microdilution); type: cell-based; conditions: Aspergillus fumigatus, ATCC13073, 48 h; for minimal effective concentration: RPMI plus 0.002% Tween-80, read-out: MEC; for MIC: RPMI plus 0.002% Tween-80, read-out: MIC
Description: as §1, §2, §3, §4, §5, §6, §7, §8

[6] = tested on: A. niger MMX 0624 ATCC 16888; experiment: MIC/MEC assay (CLSI microdilution); type: cell-based; conditions: for minimal effective concentration: RPMI plus 0.002% Tween-80, read-out: MEC
Description: as §1, §2, §3, §4, §5, §6, §7, §8

[7] = tested on: A. fumigatus MMX 5280 ATCC MYA-3626; experiment: MIC/MEC assay (CLSI microdilution); type: cell-based, Aspergillus fumigatus; conditions: Aspergillus fumigatus, 48 h
Description: as §1, §2, §3, §4, §5, §6, §7, §8

[8] = ATCC22019, RPMI plus 0.002% Tween-80
[9] = Aspergillus niger, ATCC16888, 48 h
[10] = Aspergillus niger, ATCC16888, 48 h, RPMI plus 0.002% Tween-80, read-out: MIC
[11] = RPMI plus 0.002% Tween-80, read-out: MEC
[12] = RPMI plus 0.002% Tween-80, read-out: MIC
[13] = Without Tween-80, read-out: MEC
[14] = Without Tween-80, read-out: MIC
[15] = RPMI plus 0.002% Tween-80, 48 hr

| Compound | MIC [1] | MIC [2] | MIC [3, 8] | MIC ([3]; ATCC22019, Without Tween-80) | minimal effective concentration (A. flavus MMX 5948) | MIC (A. flavus MMX 5948) | minimal effective concentration (A. fumigatus MMX 5944) | MIC (A. fumigatus MMX 5944) | MIC [4] | minimal effective concentration [4] | minimal effective concentration [5] | MIC [5] | minimal effective concentration [6, 9] | MIC [6, 10] | minimal effective concentration [7, 11] | MIC [7, 12] | minimal effective concentration [7, 13] | MIC [7, 14] | MEC [6, 15] | MIC [6, 15] |
| --- | --- | --- | --- | --- | --- | --- | --- | --- | --- | --- | --- | --- | --- | --- | --- | --- | --- | --- | --- | --- |
| CC[C@H](C)[C@@H]1NC(=O)[C@@H]2CCCN2C(=O)[C@H](Cc2cccc(-c3ccc(F)cc3)c2)N(C)C(=O)[C@H](Cc2ccccc2)NC(=O)[C@H](C(C)C)N(C)C(=O)[C@@H]([C@@H](C)CC)OC(=O)[C@H](C(C)(C)O)N(C)C(=O)[C@H](CC(C)C)NC(=O)[C@H](C(C)C)N(C)C1=O [Compound 1] (cyclo(F[X29]PI[NMeV]L[NMeVal(β-OH)][Hmp(2R,3S)][NMeV])) | 0.015 µg/mL | 0.12 µg/mL | 0.12 µg/mL | 1 µg/mL (≈ 0.836 µM) | 1 µg/mL | > 64 µg/mL | 0.5 µg/mL | > 64 µg/mL | > 64 µg/mL | 0.5 µg/mL | 0.5 µg/mL | > 64 µg/mL | 0.25 µg/mL | 0.25 µg/mL | 0.5 µg/mL | > 64 µg/mL | 2 µg/mL | > 64 µg/mL |  |  |
| CC[C@H](C)[C@@H]1NC(=O)[C@@H]2CCCN2C(=O)[C@H](Cc2cccc(-c3ccc(Cl)c(Cl)c3)c2)N(C)C(=O)[C@H](Cc2ccccc2)NC(=O)[C@H](C(C)C)N(C)C(=O)[C@@H]([C@@H](C)CC)OC(=O)[C@H](C(C)(C)O)N(C)C(=O)[C@H](CC(C)C)NC(=O)[C@H](C(C)C)N(C)C1=O [Compound 2] (cyclo(F[X30]PI[NMeV]L[NMeVal(β-OH)][Hmp(2R,3S)][NMeV])) | 0.12 µg/mL | 0.12 µg/mL | 0.5 µg/mL | 2 µg/mL (≈ 1.6 µM) | 0.5 µg/mL | 1 µg/mL | 0.5 µg/mL | > 64 µg/mL | > 64 µg/mL | 0.5 µg/mL | 0.25 µg/mL | > 64 µg/mL | 0.5 µg/mL | 0.5 µg/mL | 0.5 µg/mL | > 64 µg/mL | 8 µg/mL | > 64 µg/mL |  |  |
| CC[C@H](C)[C@@H]1NC(=O)[C@@H]2CCCN2C(=O)[C@H](Cc2cccc(-c3ccc(C(F)(F)F)cc3)c2)N(C)C(=O)[C@H](Cc2ccccc2)NC(=O)[C@H](C(C)C)N(C)C(=O)[C@@H]([C@@H](C)CC)OC(=O)[C@H](C(C)(C)O)N(C)C(=O)[C@H](CC(C)C)NC(=O)[C@H](C(C)C)N(C)C1=O [Compound 3] (cyclo(F[X28]PI[NMeV]L[NMeVal(β-OH)][Hmp(2R,3S)][NMeV])) | 0.12 µg/mL | 0.12 µg/mL | 0.5 µg/mL | 2 µg/mL (≈ 1.61 µM) | > 64 µg/mL | > 64 µg/mL | > 64 µg/mL | > 64 µg/mL | > 64 µg/mL | > 64 µg/mL | > 64 µg/mL | > 64 µg/mL |  |  | > 64 µg/mL | > 64 µg/mL | > 64 µg/mL | > 64 µg/mL | 1/1 μg/mL | 1/1 μg/mL |
| CC[C@H](C)[C@@H]1NC(=O)[C@@H]2CCCN2C(=O)[C@H](Cc2cccc(-c3cccc(C(F)(F)F)c3)c2)N(C)C(=O)[C@H](Cc2ccccc2)NC(=O)[C@H](C(C)C)N(C)C(=O)[C@@H]([C@@H](C)CC)OC(=O)[C@H](C(C)(C)O)N(C)C(=O)[C@H](CC(C)C)NC(=O)[C@H](C(C)C)N(C)C1=O [Compound 4] (cyclo(F[X31]PI[NMeV]L[NMeVal(β-OH)][Hmp(2R,3S)][NMeV])) | 0.12 µg/mL | 0.25 µg/mL | 0.5 µg/mL | 2 µg/mL (≈ 1.61 µM) | > 64 µg/mL | > 64 µg/mL | 1 µg/mL | > 64 µg/mL | > 64 µg/mL | > 64 µg/mL | 1 µg/mL | > 64 µg/mL | 0.5 µg/mL | 0.5 µg/mL | > 64 µg/mL | > 64 µg/mL | > 64 µg/mL | > 64 µg/mL |  |  |
| CC[C@H](C)[C@@H]1NC(=O)[C@@H]2CCCN2C(=O)[C@H](Cc2cccc(-c3ccc4ccccc4c3)c2)N(C)C(=O)[C@H](Cc2ccccc2)NC(=O)[C@H](C(C)C)N(C)C(=O)[C@@H]([C@@H](C)CC)OC(=O)[C@H](C(C)(C)O)N(C)C(=O)[C@H](CC(C)C)NC(=O)[C@H](C(C)C)N(C)C1=O [Compound 5] (cyclo(F[X33]PI[NMeV]L[NMeVal(β-OH)][Hmp(2R,3S)][NMeV])) | 0.12 µg/mL | 0.12 µg/mL | 0.5 µg/mL | 2 µg/mL (≈ 1.63 µM) | 0.5 µg/mL | 1 µg/mL | 0.5 µg/mL | > 64 µg/mL | > 64 µg/mL | 0.5 µg/mL | 0.5 µg/mL | > 64 µg/mL | 0.5 µg/mL | 0.5 µg/mL | 0.5 µg/mL | > 64 µg/mL | 4 µg/mL | > 64 µg/mL |  |  |
